Reference: patent US20240197823A1, “CATIONIC ANTIMICROBIAL PEPTIDES AND USES THEREOF” (priority 2021, published 2024)
Values after ≈ are worked out from the molar mass of the structure shown. Where two headings read alike, the source gives them in different places.

How the values were obtained:
E. Faecium = assay: MIC growth inhibition assay in MHB2; assay type: cell-based, Enterococcus faecium
Description: (§1) Bacteria. Bacterial clinical isolates, used for initial screening and in previous studies [Greber K E et al., 2017], were anonymously provided by the clinical microbiology laboratory of the University of Pittsburgh medical Center. The panel used for secondary screening was from CDC (Table 4), with resistance profiles data. Bacteria are stored in lock-secured −80° C. freezer and typically retrieved by obtaining single colonies on agar plates prior for subsequent liquid broth cultures. Suspensions of test bacteria were prepared from log phase of growth by diluting overnight cultures at 1:100 with fresh cation-adjusted MHB (MHB2, Millipore Sigma, USA) and incubating for additional 3-4 hours. Bacteria were spun at 3000×g for 10 minutes and the pellet resuspended in test condition media (Millipore Sigma, USA) to determine bacterial turbidity using a Den-1B densitometer (Grant Instruments, USA) at 0.5 McFarland (unit of bacterial density) corresponding to […].
(§2) Antibacterial assays. To examine antibacterial activity, this study used minor modifications of a standard growth inhibition assay endorsed by the Clinical and Laboratory Standards Institute (CLSI), as previously described [Greber K E et al., 2017]. Bacteria were incubated with each of the indicated peptides in MHB2. The bacterial cells were kept in an incubator for 18 hours at 37° C., which is linked to a robotic system that feeds a plate reader every hour with one of 8×96-well plates. This set-up allows the collection of growth kinetic data at A 570 (absorbance at 570 nm) to examine growth inhibition in real time (BioTek Instruments, USA). […] To assess bactericidal properties of the peptide, the assay was modified by using 15% fetal bovine serum (FBS, for a more physiologically relevant test condition) mixed with 25% MHB2 and 60% PBS. Bacterial cells (colony forming unit/mL or CFU/mL) were enumerated after incubating treated bacteria for 3 hours and plating serially diluted samples on broth agar medium at 37° C. overnight. […] For killing kinetics, we slightly modified the bactericidal assay to examine bacterial killing at the MBC (or 2×MBC) as a function of time for up to 3 hours. Data were analyzed using GraphPad Prism software.

S. aureus = assay: MIC growth inhibition assay in MHB2; assay type: cell-based, Staphylococcus aureus
Description: as §1, §2

K. pneumoniae = assay: MIC growth inhibition assay in MHB2; assay type: cell-based, klebsiella pneumoniae; conditions: read-out: MIC
Description: as §1, §2

E. coli = assay: microbe, parasite or virus in culture
Description: as §1, §2

A. baumannii = assay: microbe, parasite or virus in culture
Description: as §1, §2

P. aeruginosa = assay: microbe, parasite or virus in culture
Description: as §1, §2

Enterobacter spp = assay: MIC growth inhibition assay in MHB2; assay type: cell-based, Enterobacter spp: EA (aerogenes), EC (cloacae)
Description: as §1, §2

[1] = tested on: MDR panel of gram-negative (GNB) and -positive (GPB) bacterial isolates classified as ESKAPE pathogens
Description: as §1
Antibacterial assays. To examine antibacterial activity, this study used minor modifications of a standard growth inhibition assay endorsed by the Clinical and Laboratory Standards Institute (CLSI), as previously described [Greber K E et al., 2017]. Bacteria were incubated with each of the indicated peptides in MHB2. The bacterial cells were kept in an incubator for 18 hours at 37° C., which is linked to a robotic system that feeds a plate reader every hour with one of 8×96-well plates. This set-up allows the collection of growth kinetic data at A 570 (absorbance at 570 nm) to examine growth inhibition in real time (BioTek Instruments, USA). […] To assess bactericidal properties of the peptide, the assay was modified by using 15% fetal bovine serum (FBS, for a more physiologically relevant test condition) mixed with 25% MHB2 and 60% PBS. Bacterial cells (colony forming unit/mL or CFU/mL) were enumerated after incubating treated bacteria for 3 hours and plating serially diluted samples on broth agar medium at 37° C. overnight. […] Data were analyzed using GraphPad Prism software.

human red blood cells = conditions: at 16 μM, published data; cited from earlier work

Cc1onc(-c2ccccc2)c1C(=O)N[C@@H]1C(=O)N2[C@@H]1SC(C)(C)[C@@H]2C(=O)O [Oxa]
MIC (E. Faecium; strain EF23614): 0.25 µM (≈ 0.1 µg/mL)
MIC (E. Faecium; strain EF24670): >16 µM
MIC (E. Faecium; strain EF26215): 2 µM (≈ 0.803 µg/mL)
MIC (E. Faecium; strain EF26692): 2 µM (≈ 0.803 µg/mL)
MIC (S. aureus; strain SA12212): 8 µM (≈ 3.21 µg/mL)
MIC (S. aureus; strain SA18710): 4 µM (≈ 1.61 µg/mL)
MIC (S. aureus; strain SA49775): 0.25 µM (≈ 0.1 µg/mL)
MIC (S. aureus; strain SA-US300): 4 µM (≈ 1.61 µg/mL)

NC[C@H]1O[C@H](O[C@H]2[C@H](O)[C@@H](O[C@H]3O[C@H](CO)[C@@H](O)[C@H](N)[C@H]3O)[C@H](N)C[C@@H]2N)[C@H](N)C[C@@H]1O [Tob]
MIC (K. pneumoniae; strain KPA5): >16 µM
MIC (K. pneumoniae; strain KPB3): >16 µM
MIC (E. coli; strain YDC337): >16 µM
MIC (E. coli; strain YDC748): 16 µM (≈ 7.48 µg/mL)
MIC (A. baumannii; strain AB-A2): 0.5 µM (≈ 0.234 µg/mL)
MIC (A. baumannii; strain AB-A3): 16 µM (≈ 7.48 µg/mL)
MIC (A. baumannii; strain AB-F8): >16 µM
MIC (A. baumannii; strain AB-F9): 2 µM (≈ 0.935 µg/mL)
MIC (P. aeruginosa; strain PA01): 1 µM (≈ 0.468 µg/mL)
MIC (P. aeruginosa; strain PA14): 0.5 µM (≈ 0.234 µg/mL)
MIC (P. aeruginosa; strain PA97-5): >16 µM
MIC (P. aeruginosa; strain PA129-5): 16 µM (≈ 7.48 µg/mL)
MIC (Enterobacter spp; strain EA518 (aerogenes)): >16 µM
MIC (Enterobacter spp; strain EA596 (aerogenes)): >16 µM
MIC (Enterobacter spp; strain EC470 (cloacae)): 4 µM (≈ 1.87 µg/mL)
MIC (Enterobacter spp; strain EC560 (cloacae)): >16 µM

CC(C)C[C@H](NC(=O)[C@H](Cc1ccccc1)NC(=O)[C@@H]1CCCN1C(=O)[C@H](Cc1c[nH]c2ccccc12)NC(=O)[C@H](Cc1c[nH]c2ccccc12)NC(=O)[C@H](Cc1c[nH]c2ccccc12)NC(=O)[C@@H]1CCCN1C(=O)[C@H](Cc1ccccc1)NC(=O)[C@H](CCCNC(=N)N)NC(=O)[C@H](CCCNC(=N)N)NC(=O)[C@@H](N)C(C)C)C(=O)N[C@@H](CCCNC(=N)N)C(=O)N[C@@H](CCCNC(=N)N)C(=O)O [tritrpticin]
mean MIC [1]: > 10 µM

Ac-LKRVWKRVFKLLKRYWRQLKKPVR-NH2 [SAAP-148]
red blood cell (RBC) lysis (human red blood cells): only moderate
